Test results as given in US4820821A, “Novel pyridazinone-imines and their physiologically tolerated addition salts with acids, their preparation and therapeutic agents containing these compounds” (BASF Aktiengesellschaft, priority 1981, dated 1989).
Where a name gives a salt, the structure may show the parent alone. Read-outs that look alike come from different tables or passages of the source.

How the values were obtained:
blood pressure = test: Effect on the blood pressure: hypertensive action, pithed rat; format: in vivo, male Sprague-Dawley rats; settings: Table 1; for ED20: Rattus norvegicus, dose based on the base, read-out: ED 20% hypertensive action (dose which increases the blood pressure of the pithed rat by 20%); for R.A. (relative activity), hypertensive action: amezinium = 1.00
Procedure: The measurement of the blood pressure in the carotid artery was carried out by means of Statham transducers. The substance was administered in the jugular vein (as an aqueous solution, 1 ml/kg) or intraperitoneally (as a tragacanth suspension, 2 ml/kg). The ED 20% is determined as the dose which increases the blood pressure by 20%.

[1] = test system: reserpine-induced hypothermia; test: Antidepressive action: reserpine antagonism, inhibition of reserpine-induced hypothermia of the mouse; format: in vivo, male Swiss mice; settings: Table 1; for ED50: Mus musculus, oral administration 60 min before reserpine, dose based on the base, read-out: ED 50% (dose which inhibits the reserpine-induced hypothermia of the mouse by 50%); for R.A. (relative activity), reserpine antagonism: amezinium = 1.00, oral
Procedure: Antidepressants effect dose-dependent inhibition of this hypotherma. The test substances are administered orally 60 minutes before the administration of reserpine.
The dose which effects 50% inhibition of the reserpine-induced hypothermia is determined, as the ED 50%, from the linear regression between log dose (mg/kg) and relative reduction in hypothermia (Δ%).

[2] = test system: reserpine-induced hypothermia / blood pressure; test: Quotient ED 50% antidepressive action / ED 20% hypertensive action; format: in vivo, mouse / rat
Description: This is evident from the fact that the quotient defined above differs wtih respect to the comparative compounds. […] This arises, inter alia, from the fact that the hypertensive ED 20 constitutes the denominator of the quotient. It is possible that the unforeseeable selective direction of action is attributable to the special substitution,in accordance with the invention, at the 4-imino group.

## CCSC(=O)N=c1ccn(-c2ccccc2)nc1 [Example 36]
Blood pressure; iv, i.v. administration
  ED20: 0.316 mg/kg
Blood pressure; i.v. administration
  R.A. (relative activity), hypertensive action: 0.16
[1]
  ED50: 2 mg/kg
  R.A. (relative activity), reserpine antagonism: 0.37
[2]; hypertensive test i.v.
  Q (quotient ED 50% antidepressive action/ED 20% hypertensive action): 6.33

## O=C(N=c1ccn(-c2ccccc2)nc1)c1cccc(C(F)(F)F)c1 [Example 26]
Blood pressure; ip, i.p. administration
  ED20: 4.64 mg/kg
Blood pressure; i.p. administration
  R.A. (relative activity), hypertensive action: 0.08
[1]
  ED50: 3.26 mg/kg
  R.A. (relative activity), reserpine antagonism: 0.22
[2]; hypertensive test i.p.
  Q (quotient ED 50% antidepressive action/ED 20% hypertensive action): 0.70

## CC(=O)N=c1ccn(-c2ccccc2)nc1 [Example 1, 4-acetylimino-1,4-dihydro-1-phenylpyridazine hydrochloride]
Blood pressure; iv, i.v. administration
  ED20: 0.32 mg/kg
Blood pressure; i.v. administration
  R.A. (relative activity), hypertensive action: 0.16
[1]
  ED50: 0.67 mg/kg
  R.A. (relative activity), reserpine antagonism: 1.09
[2]; hypertensive test i.v.
  Q (quotient ED 50% antidepressive action/ED 20% hypertensive action): 2.09

## C=CCOC(=O)N=c1ccn(-c2ccccc2)nc1 [Example 35]
Blood pressure; iv, i.v. administration
  ED20: 0.1 mg/kg
Blood pressure; i.v. administration
  R.A. (relative activity), hypertensive action: 0.50
[1]
  ED50: 0.25 mg/kg
  R.A. (relative activity), reserpine antagonism: 2.93
[2]; hypertensive test i.v.
  Q (quotient ED 50% antidepressive action/ED 20% hypertensive action): 2.50

## COc1cc(=NC(=O)c2ccc(Cl)cc2Cl)cnn1-c1ccccc1 [Example 68]
Blood pressure; ip, i.p. administration
  ED20: > 21.5 mg/kg
Blood pressure; i.p. administration
  R.A. (relative activity), hypertensive action: < 0.02
[1]
  ED50: 0.95 mg/kg
  R.A. (relative activity), reserpine antagonism: 0.77
[2]; hypertensive test i.p.
  Q (quotient ED 50% antidepressive action/ED 20% hypertensive action): < 0.04

## COc1cc(=NC(=O)c2ccc(Cl)c(Cl)c2)cnn1-c1ccccc1 [Example 80]
Blood pressure; ip, i.p. administration
  ED20: > 10 mg/kg
Blood pressure; i.p. administration
  R.A. (relative activity), hypertensive action: < 0.04
[1]
  ED50: 1.5 mg/kg
  R.A. (relative activity), reserpine antagonism: 0.49
[2]; hypertensive test i.p.
  Q (quotient ED 50% antidepressive action/ED 20% hypertensive action): < 0.15

## COc1cc(=NC(=O)c2ccccc2Cl)cnn1-c1ccccc1 [Example 64]
Blood pressure; ip, i.p. administration
  ED20: > 10 mg/kg
Blood pressure; i.p. administration
  R.A. (relative activity), hypertensive action: < 0.04
[1]
  ED50: 1.27 mg/kg
  R.A. (relative activity), reserpine antagonism: 0.58
[2]; hypertensive test i.p.
  Q (quotient ED 50% antidepressive action/ED 20% hypertensive action): < 0.13
